Patent US11273250B2, “Devices, systems, and methods for excavating cancer cells” (GEORGIA TECH RESEARCH CORPORATION, priority 2010, dated 2022)

Legend:
tumor cells = test: Viability of tumor cells at different concentrations of cyclopamine; type: cell-based; conditions: concentration suggested for conjugation to the collagen hydrogel scaffold
Procedure: (§1) The smoothened inhibitor, cyclopamine, was evaluated to determine the effective drug concentration required to induce apoptosis in tumor cells. The viability of the tumors cells was measured at different concentrations of cyclopamine. Healthy cells (e.g., neurons and glia) were not affected by exposure to the drug.

[1] = tested on: Healthy cells (e.g., neurons and glia); test: Effect of cyclopamine exposure on healthy cells; type: cell-based
Procedure: as §1

CC1=C2C[C@H]3[C@@H](CC=C4C[C@@H](O)CC[C@@]43C)[C@@H]2CC[C@]12O[C@@H]1C[C@H](C)CN[C@H]1[C@H]2C [cyclopamine]
effective drug concentration required to induce apoptosis in tumor cells (tumor cells): 30 µM | effect of exposure to the drug on healthy cells [1]: not affected
